Test results taken from patent US20060258683A1, “Para-sulfonyl substituted phenyl compounds as modulators of ppars” (priority 2003, published 2006).
pEC50: −log10 of the molar value.

Experiments:
Type in all cases: cell-based
PPARδ = biological target: T1, PPARδ (Homo sapiens, UniProt Q03181); assay: PPAR-delta EC50, functional cell (transactivation) assay
T1 construct: expressed in transfected cells; host or cells: CV-1 cells
T1 sequence (Q03181 211-439 limits assumed): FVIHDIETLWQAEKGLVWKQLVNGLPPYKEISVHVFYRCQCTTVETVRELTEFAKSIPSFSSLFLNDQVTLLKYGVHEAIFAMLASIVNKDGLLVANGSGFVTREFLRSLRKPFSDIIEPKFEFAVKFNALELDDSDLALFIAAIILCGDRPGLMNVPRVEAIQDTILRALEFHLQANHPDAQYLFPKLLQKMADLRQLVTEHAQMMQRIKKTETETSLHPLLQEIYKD
Text: (§1) The following transfection assay methods are provided by way of example only. Compounds may be screened for functional potency in transient transfection assays in CV-1 cells for their ability to activate the PPAR subtypes (transactivation assay). A previously established chimeric receptor system was utilized to allow comparison of the relative transcriptional activity of the receptor subtypes on the same target gene and to prevent endogenous receptor activation from complicating the interpretation of results. See, for example, Lehmann, J. M.; Moore, L. B.; Smith-Oliver, T. A; Wilkinson, W. O.; Willson, T. M.; Kliewer, S. A., An antidiabetic thiazolidinedione is a high affinity ligand for peroxisome proliferator-activated receptor γ(PPARγ), J. Biol. Chem., 1995, 270, 12953-6. The ligand binding domains for murine and human PPAR-alpha, PPAR-gamma, and PPAR-delta are each fused to the yeast transcription factor GAL4 DNA binding domain. CV-1 cells were transiently transfected with expression vectors for the respective PPAR chimera along with a reporter construct containing five copies of the GAL4 DNA binding site driving expression of secreted placental alkaline phosphatase (SPAP) and p-galactosidase. After 16 h, the medium is exchanged to DME medium supplemented with 10% delipidated fetal calf serum and the test compound at the appropriate concentration. After an additional 24 h, cell extracts are prepared and assayed for alkaline phosphatase and pgalactosidase activity. Alkaline phosphatase activity was corrected for transfection efficiency using the p-galactosidase activity as an internal standard (see, for example, Kliewer, S. A., et. al. Cell 1995, 83, 813-819. Rosiglitazone is used as a positive control in the hPPARγ assay. The positive control in the hPPAR-alpha and hPPAR-delta assays was 2-[4-(2-(3-(4-fluorophenyl)-1heptylureido)ethyl)-phenoxy]-2-methylpropionic acid, which can be prepared as described in Brown, Peter J., et. al. Synthesis (7), 778-782 (1997), or patent publication WO 9736579.
(§2) Compounds of Examples 1-41 were assayed to measure their biological activity with respect to their EC50 values and efficacy for modulating PPAR-alpha, PPAR-gamma, and PPAR-delta as set forth in Table 2.

PPARγ = biological target: T2, PPARγ (Homo sapiens, UniProt P37231); assay: PPAR-gamma EC50, functional cell (transactivation) assay
T2 construct: expressed in transfected cells; host or cells: CV-1 cells
T2 sequence (P37231 238-503 limits assumed): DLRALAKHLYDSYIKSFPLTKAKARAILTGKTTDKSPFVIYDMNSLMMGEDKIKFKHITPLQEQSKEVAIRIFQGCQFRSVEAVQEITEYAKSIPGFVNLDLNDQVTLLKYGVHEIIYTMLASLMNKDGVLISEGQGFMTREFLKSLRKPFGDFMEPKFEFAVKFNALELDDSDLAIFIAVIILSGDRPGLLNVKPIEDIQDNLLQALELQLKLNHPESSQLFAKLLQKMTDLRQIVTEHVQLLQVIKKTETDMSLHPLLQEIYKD
Text: as §1, §2

PPARα = biological target: T3, PPARα (Homo sapiens, UniProt Q07869); assay: PPAR-alpha EC50, functional cell (transactivation) assay
T3 construct: expressed in transfected cells; host or cells: CV-1 cells
T3 sequence (Q07869 239-466 limits assumed): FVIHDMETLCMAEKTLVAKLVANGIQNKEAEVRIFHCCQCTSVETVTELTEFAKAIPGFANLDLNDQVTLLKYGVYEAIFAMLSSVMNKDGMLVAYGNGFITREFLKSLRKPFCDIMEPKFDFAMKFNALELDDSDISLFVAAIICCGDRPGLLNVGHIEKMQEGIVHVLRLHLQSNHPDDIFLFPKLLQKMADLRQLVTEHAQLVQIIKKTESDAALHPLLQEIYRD
Text: as §1, §2

Compound | pEC50 (PPARδ) | pEC50 (PPARγ) | pEC50 (PPARα)
CC(C)(Oc1ccc(S(=O)(=O)N2CCN(c3ccccn3)CC2)cc1)C(=O)O | < 4.00 | < 4.00 | < 4.00
CC(C)(Oc1ccc(S(=O)(=O)N2CCN(c3ccc(F)cc3)CC2)cc1)C(=O)O | 4.00 to 6.00 | < 4.00 | < 4.00
Cc1cc(S(=O)(=O)N2CCN(C(c3ccc(F)cc3)c3ccc(F)cc3)CC2)ccc1OC(C)(C)C(=O)O | 4.00 to 6.00 | 4.00 to 6.00 | 4.00 to 6.00
Cc1ccc(N2CCN(S(=O)(=O)c3ccc(OC(C)(C)C(=O)O)c(C)c3)CC2)c(C)c1 | 4.00 to 6.00 | 4.00 to 6.00 | < 4.00
Cc1cc(S(=O)(=O)N2CCN(C3CCCCC3)CC2)ccc1OC(C)(C)C(=O)O | 4.00 to 6.00 | < 4.00 | < 4.00
Cc1cc(S(=O)(=O)N2CCN(C(c3ccccc3)c3ccc(Cl)cc3)CC2)ccc1OC(C)(C)C(=O)O (stereo not drawn) [drawing 116] | 4.00 to 6.00 | 4.00 to 6.00 | 4.00 to 6.00
Cc1cc(S(=O)(=O)N2CCN(CCc3ccccc3)CC2)ccc1OC(C)(C)C(=O)O | 4.00 to 6.00 | < 4.00 | < 4.00
CC(C)(Oc1ccc(S(=O)(=O)N2CCN(c3cccc(C(F)(F)F)c3)CC2)cc1)C(=O)O | 4.00 to 6.00 | 4.00 to 6.00 | < 4.00
Cc1cc(S(=O)(=O)N2CCN(c3ccc(C(F)(F)F)cc3[N+](=O)[O-])CC2)ccc1OC(C)(C)C(=O)O | 4.00 to 6.00 | 4.00 to 6.00 | < 4.00
COc1ccc(N2CCN(S(=O)(=O)c3ccc(OC(C)(C)C(=O)O)c(C)c3)CC2)cc1 | 4.00 to 6.00 | 4.00 to 6.00 | < 4.00
Cc1cc(S(=O)(=O)N2CCN(C(c3ccccc3)c3ccccc3)CC2)ccc1OC(C)(C)C(=O)O | 4.00 to 6.00 | 4.00 to 6.00 | < 4.00
Cc1cc(S(=O)(=O)N2CCN(c3ccc(C#N)cc3)CC2)ccc1OC(C)(C)C(=O)O | 4.00 to 6.00 | < 4.00 | < 4.00
Cc1cc(S(=O)(=O)N2CCN(CC3CCCCC3)CC2)ccc1OC(C)(C)C(=O)O | 4.00 to 6.00 | 4.00 to 6.00 | < 4.00
CCOc1ccccc1N1CCN(S(=O)(=O)c2ccc(OC(C)(C)C(=O)O)c(C)c2)CC1 | 4.00 to 6.00 | 4.00 to 6.00 | 4.00 to 6.00
Cc1cc(S(=O)(=O)N2CCN(C/C=C/c3ccccc3)CC2)ccc1OC(C)(C)C(=O)O | 4.00 to 6.00 | 4.00 to 6.00 | < 4.00
Cc1cc(S(=O)(=O)N2CCN(Cc3ccc(F)cc3)CC2)ccc1OC(C)(C)C(=O)O | 4.00 to 6.00 | 4.00 to 6.00 | < 4.00
Cc1cc(S(=O)(=O)N2CCN(c3cc(Cl)ccc3C)C(C)C2)ccc1OC(C)(C)C(=O)O (stereo not drawn) | 4.00 to 6.00 | < 4.00 | < 4.00
COc1cccc(N2CCN(S(=O)(=O)c3ccc(OC(C)(C)C(=O)O)c(C)c3)CC2)c1 | 4.00 to 6.00 | 4.00 to 6.00 | 4.00 to 6.00
Cc1cc(S(=O)(=O)N2CCN(c3ccccc3F)CC2)ccc1OC(C)(C)C(=O)O | > 6.00 | 4.00 to 6.00 | < 4.00
Cc1cc(S(=O)(=O)N2CCN(c3ccccc3)CC2)ccc1OC(C)(C)C(=O)O | 4.00 to 6.00 | 4.00 to 6.00 | < 4.00
CC(C)(Oc1ccc(S(=O)(=O)N2CCN(c3ccccc3F)CC2)cc1)C(=O)O | 4.00 to 6.00 | < 4.00 | < 4.00
